In ChEMBL document CHEMBL5696442, “Discovery of type II inhibitors of TGFβ-activated kinase 1 (TAK1) and mitogen-activated protein kinase kinase kinase kinase 2 (MAP4K2)” (J Med Chem, 2015):
Activity calls are given as the source filed them. No cut-off for these calls is given here.

How the values were obtained:
[1] = biological target: Serine/threonine-protein kinase PLK1 (Homo sapiens) (UniProt P53350); experiment: Inhibition of PLK1 Lys2 labeling site in human Huh-7 cells at 1 uM by KiNativ Profiling analysis relative to control; assay type: cell-based
[2] = biological target: DNA-PK/Ku70/Ku85 (Homo sapiens) (UniProt P78527+P12956+P13010); experiment: Inhibition of DNAPK ATP labeling site harbouring KGGSWIQEINVAEK in human Huh-7 cell lysate at 1 uM by KiNativ Profiling analysis relative to control; assay type: subcellular
[3] = biological target: Serine/threonine-protein kinase 10 (Homo sapiens) (UniProt O94804); experiment: Inhibition of LOK Lys2 labeling site in human Huh-7 cells at 1 uM by KiNativ Profiling analysis relative to control; assay type: cell-based
[4] = biological target: T1, Serine/threonine-protein kinase ULK3 (Homo sapiens) (UniProt Q6PHR2); experiment: Inhibition of ULK3 Lys2 labeling site in human Huh-7 cell lysate at 1 uM by KiNativ Profiling analysis relative to control; assay type: subcellular
T1 sequence (whole entry): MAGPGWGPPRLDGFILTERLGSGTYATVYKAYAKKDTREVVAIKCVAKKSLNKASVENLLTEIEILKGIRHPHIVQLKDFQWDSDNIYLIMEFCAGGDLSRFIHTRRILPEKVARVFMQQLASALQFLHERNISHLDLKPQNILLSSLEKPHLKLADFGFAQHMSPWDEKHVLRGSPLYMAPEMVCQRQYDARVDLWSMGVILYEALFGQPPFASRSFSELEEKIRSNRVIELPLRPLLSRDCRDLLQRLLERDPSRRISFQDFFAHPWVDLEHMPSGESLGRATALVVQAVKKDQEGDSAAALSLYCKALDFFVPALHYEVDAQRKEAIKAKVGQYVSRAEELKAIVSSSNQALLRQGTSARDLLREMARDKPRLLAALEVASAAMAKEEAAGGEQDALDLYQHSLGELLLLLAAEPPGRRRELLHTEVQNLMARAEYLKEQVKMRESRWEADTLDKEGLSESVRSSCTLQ

[5] = biological target: T2, Phosphatidylinositol 5-phosphate 4-kinase type-2 gamma (Homo sapiens) (UniProt Q8TBX8); experiment: Inhibition of PIP5K2C ATP labeling site harbouring VKELPTLKDMDFLNK in human Huh-7 cells at 10 uM by KiNativ Profiling analysis relative to control; assay type: cell-based
T2 sequence (whole entry): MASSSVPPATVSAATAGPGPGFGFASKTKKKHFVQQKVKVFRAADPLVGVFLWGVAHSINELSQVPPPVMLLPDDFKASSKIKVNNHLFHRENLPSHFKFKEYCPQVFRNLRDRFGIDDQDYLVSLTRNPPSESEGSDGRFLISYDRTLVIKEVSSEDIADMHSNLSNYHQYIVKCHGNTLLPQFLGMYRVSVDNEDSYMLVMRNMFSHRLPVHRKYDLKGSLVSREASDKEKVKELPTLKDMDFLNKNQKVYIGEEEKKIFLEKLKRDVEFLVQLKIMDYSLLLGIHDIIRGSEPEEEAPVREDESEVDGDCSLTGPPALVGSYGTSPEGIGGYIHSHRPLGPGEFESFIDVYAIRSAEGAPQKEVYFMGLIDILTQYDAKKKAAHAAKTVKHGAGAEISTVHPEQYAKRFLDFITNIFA

[6] = biological target: Dual specificity mitogen-activated protein kinase kinase; MEK1/2 (Homo sapiens) (UniProt P36507+Q02750); experiment: Inhibition of MAP2K1/2 K2 labeling site in human Huh-7 cells at 10 uM by KiNativ Profiling analysis relative to control; assay type: cell-based
Chain of Dual specificity mitogen-activated protein kinase kinase; MEK1/2 (Homo sapiens) (P36507 whole entry, looked up): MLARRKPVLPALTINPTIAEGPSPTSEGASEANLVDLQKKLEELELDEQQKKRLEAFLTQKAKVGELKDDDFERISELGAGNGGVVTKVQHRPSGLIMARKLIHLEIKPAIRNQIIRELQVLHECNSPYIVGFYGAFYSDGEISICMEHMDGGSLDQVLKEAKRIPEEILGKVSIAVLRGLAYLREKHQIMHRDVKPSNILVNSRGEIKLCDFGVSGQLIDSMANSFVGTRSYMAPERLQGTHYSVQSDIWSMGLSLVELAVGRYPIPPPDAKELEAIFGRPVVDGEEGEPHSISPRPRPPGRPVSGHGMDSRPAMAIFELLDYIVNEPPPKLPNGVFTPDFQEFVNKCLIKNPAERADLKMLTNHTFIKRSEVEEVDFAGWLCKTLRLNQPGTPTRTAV
Chain of Dual specificity mitogen-activated protein kinase kinase; MEK1/2 (Homo sapiens) (Q02750 whole entry, looked up): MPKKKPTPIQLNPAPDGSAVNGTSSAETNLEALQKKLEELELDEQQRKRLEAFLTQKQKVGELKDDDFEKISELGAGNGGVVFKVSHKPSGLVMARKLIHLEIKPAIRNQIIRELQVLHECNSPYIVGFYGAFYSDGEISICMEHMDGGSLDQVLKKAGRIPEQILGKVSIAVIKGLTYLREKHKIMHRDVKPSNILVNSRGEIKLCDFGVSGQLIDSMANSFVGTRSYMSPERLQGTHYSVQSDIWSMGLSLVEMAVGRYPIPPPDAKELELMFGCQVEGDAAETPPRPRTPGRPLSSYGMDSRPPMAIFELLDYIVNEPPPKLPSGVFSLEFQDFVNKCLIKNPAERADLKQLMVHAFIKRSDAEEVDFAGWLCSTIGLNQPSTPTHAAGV

[7] = biological target: TRAF2 and NCK-interacting protein kinase (Homo sapiens) (UniProt Q9UKE5); experiment: Inhibition of TNIK K1 labeling site in human Huh-7 cells at 10 uM by KiNativ Profiling analysis relative to control; assay type: cell-based
[8] = biological target: Tyrosine-protein kinase ABL (Homo sapiens) (UniProt P00519+P42684); experiment: Inhibition of ABL1/2 ACT labeling site in human Huh-7 cells at 1 uM by KiNativ Profiling analysis relative to control; assay type: cell-based
Chain of Tyrosine-protein kinase ABL (Homo sapiens) (P00519 whole entry, looked up, canonical isoform): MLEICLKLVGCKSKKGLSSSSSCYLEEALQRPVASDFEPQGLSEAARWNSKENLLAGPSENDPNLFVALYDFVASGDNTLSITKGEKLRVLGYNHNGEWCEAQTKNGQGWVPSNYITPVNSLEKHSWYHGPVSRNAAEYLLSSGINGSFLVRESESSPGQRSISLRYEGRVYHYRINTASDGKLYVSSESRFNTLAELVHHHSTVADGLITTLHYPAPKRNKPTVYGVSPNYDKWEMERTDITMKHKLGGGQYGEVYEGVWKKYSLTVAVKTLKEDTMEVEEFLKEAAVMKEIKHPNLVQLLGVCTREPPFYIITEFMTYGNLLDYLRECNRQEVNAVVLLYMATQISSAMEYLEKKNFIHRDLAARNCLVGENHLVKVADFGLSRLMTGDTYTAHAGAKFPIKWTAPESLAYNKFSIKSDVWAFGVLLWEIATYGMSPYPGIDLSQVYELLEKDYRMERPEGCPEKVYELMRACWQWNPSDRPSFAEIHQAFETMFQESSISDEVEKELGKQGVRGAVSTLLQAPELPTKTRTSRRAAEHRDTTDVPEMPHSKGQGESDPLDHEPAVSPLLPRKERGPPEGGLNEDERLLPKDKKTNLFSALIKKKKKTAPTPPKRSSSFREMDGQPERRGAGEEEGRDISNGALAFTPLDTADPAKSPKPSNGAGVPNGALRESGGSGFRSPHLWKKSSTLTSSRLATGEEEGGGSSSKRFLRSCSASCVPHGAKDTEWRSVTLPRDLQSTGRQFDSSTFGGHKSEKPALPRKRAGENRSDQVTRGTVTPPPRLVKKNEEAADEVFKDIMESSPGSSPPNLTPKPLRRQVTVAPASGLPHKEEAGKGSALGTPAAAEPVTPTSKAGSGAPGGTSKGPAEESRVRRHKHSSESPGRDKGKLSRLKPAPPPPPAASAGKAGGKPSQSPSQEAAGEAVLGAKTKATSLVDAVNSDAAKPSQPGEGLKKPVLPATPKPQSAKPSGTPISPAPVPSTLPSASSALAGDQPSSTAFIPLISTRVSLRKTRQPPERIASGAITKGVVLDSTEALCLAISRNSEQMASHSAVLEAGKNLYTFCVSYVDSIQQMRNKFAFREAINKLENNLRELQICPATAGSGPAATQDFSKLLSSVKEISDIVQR
Chain of Tyrosine-protein kinase ABL (Homo sapiens) (P42684 whole entry, looked up, canonical isoform): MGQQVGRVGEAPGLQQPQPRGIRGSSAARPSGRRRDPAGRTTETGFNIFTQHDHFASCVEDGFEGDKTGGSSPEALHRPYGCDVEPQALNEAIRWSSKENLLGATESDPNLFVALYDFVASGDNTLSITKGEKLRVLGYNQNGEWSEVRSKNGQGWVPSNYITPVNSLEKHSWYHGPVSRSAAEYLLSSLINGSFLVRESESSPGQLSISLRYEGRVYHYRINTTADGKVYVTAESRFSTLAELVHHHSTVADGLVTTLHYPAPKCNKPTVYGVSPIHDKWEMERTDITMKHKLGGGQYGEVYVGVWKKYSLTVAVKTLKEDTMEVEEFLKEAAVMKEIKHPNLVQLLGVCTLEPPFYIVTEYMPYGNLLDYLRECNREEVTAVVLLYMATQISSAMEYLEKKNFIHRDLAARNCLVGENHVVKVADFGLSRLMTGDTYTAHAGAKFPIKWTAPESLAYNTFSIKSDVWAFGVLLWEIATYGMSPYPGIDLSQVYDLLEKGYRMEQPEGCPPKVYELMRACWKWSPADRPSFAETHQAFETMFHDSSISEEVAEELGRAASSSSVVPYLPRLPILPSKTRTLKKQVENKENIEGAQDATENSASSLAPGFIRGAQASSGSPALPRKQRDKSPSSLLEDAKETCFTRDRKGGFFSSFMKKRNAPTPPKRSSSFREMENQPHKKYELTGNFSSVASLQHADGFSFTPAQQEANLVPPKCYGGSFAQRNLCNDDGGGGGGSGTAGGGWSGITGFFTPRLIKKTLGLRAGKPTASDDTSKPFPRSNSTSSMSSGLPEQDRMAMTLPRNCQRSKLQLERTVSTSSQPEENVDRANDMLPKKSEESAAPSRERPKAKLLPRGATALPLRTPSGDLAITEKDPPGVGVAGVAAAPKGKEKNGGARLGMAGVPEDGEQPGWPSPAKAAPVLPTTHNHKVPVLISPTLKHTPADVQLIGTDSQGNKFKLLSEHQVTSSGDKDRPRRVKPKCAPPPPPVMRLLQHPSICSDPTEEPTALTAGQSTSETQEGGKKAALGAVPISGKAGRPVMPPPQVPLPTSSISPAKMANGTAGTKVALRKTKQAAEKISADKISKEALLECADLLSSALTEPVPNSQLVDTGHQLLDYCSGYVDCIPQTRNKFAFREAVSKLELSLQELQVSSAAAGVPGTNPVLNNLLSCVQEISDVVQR

[9] = biological target: Phosphatidylinositol 4,5-bisphosphate 3-kinase catalytic subunit beta isoform (Homo sapiens) (UniProt P42338); experiment: Inhibition of PIK3CB ATP labeling site in human Huh-7 cells at 1 uM by KiNativ Profiling analysis relative to control; assay type: cell-based
[10] = biological target: MAP kinase-interacting serine/threonine-protein kinase 1 (Homo sapiens) (UniProt Q9BUB5); experiment: Inhibition of MKNK1 (unknown origin) at 10 uM by Ambit Kinomescan binding assay
[11] = biological target: Microtubule-associated serine/threonine-protein kinase 2 (Homo sapiens) (UniProt Q6P0Q8); experiment: Inhibition of MAST2 Lys2 labeling site in human A-375 cells at 0.05 uM by KiNativ Profiling analysis relative to control; assay type: cell-based
Chain of Microtubule-associated serine/threonine-protein kinase 2 (Homo sapiens) (Q6P0Q8 whole entry): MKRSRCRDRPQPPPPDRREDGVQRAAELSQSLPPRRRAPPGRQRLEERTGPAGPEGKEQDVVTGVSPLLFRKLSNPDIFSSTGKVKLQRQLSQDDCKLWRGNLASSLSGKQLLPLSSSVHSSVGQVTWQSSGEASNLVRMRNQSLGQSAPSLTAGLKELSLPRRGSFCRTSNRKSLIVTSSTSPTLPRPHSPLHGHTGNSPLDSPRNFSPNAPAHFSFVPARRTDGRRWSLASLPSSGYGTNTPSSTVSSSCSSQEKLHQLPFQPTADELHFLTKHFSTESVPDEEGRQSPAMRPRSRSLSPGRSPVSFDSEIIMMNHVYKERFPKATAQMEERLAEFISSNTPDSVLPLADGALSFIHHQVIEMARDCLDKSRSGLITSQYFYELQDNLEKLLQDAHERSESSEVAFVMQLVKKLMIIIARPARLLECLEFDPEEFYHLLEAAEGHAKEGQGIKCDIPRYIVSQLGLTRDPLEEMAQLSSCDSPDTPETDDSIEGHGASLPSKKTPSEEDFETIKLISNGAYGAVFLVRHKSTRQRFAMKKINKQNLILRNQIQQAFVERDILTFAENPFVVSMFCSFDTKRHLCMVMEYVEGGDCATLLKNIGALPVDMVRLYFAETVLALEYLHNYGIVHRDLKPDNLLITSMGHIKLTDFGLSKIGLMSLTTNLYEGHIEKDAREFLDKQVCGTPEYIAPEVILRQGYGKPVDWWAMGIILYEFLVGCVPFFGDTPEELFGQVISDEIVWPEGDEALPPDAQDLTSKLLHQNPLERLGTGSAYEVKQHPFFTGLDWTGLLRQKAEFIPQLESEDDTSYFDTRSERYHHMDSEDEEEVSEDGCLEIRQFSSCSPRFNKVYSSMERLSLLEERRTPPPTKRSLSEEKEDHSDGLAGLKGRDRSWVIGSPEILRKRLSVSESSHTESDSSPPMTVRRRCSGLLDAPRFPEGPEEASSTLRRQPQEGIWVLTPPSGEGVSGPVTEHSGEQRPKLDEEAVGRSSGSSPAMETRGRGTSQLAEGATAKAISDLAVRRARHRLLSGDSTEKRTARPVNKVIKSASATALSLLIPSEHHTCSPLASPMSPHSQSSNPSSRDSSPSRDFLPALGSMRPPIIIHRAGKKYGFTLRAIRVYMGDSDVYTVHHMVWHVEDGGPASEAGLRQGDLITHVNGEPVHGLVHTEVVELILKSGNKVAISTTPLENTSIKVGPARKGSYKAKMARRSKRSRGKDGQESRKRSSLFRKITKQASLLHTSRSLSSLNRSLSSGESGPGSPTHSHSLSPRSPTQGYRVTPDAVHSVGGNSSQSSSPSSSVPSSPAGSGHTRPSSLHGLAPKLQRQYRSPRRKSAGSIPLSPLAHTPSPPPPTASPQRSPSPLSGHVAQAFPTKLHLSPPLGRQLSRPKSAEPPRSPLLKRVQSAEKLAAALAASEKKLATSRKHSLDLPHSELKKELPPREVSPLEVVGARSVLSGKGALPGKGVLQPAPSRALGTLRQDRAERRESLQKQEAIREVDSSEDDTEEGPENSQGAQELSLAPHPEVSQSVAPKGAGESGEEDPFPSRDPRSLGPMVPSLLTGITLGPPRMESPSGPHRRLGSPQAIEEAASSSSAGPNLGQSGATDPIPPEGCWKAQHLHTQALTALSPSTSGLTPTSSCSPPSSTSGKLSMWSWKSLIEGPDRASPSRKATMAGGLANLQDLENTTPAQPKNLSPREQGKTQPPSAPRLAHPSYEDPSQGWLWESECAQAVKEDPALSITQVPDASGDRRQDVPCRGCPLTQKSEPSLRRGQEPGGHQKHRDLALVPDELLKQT

[12] = biological target: Serine/threonine-protein kinase SIK3 (Homo sapiens) (UniProt Q9Y2K2); experiment: Inhibition of QSK Lys2 labeling site in human A-375 cells at 0.05 uM by KiNativ Profiling analysis relative to control; assay type: cell-based
[13] = biological target: Mitogen-activated protein kinase kinase kinase 11 (Homo sapiens) (UniProt Q16584); experiment: Inhibition of MLK3 (unknown origin) at 1 uM by Ambit Kinomescan binding assay relative to control
[14] = tested on: Tyrosine-protein kinase ABL1 (Homo sapiens), P00519 [E255K]; experiment: Inhibition of phosphorylated ABL1 E255K mutant (unknown origin) at 1 uM by Ambit Kinomescan binding assay relative to control; values are per cent of control
Chain of Tyrosine-protein kinase ABL1 (Homo sapiens), P00519 [E255K] (P00519 whole entry E255K): as the sequence (P00519 whole entry, looked up, canonical isoform) above, with E255K counted along it

CNc1cc(Oc2cc(C(=O)Nc3cc(N4CCN(C)CC4)cc(C(F)(F)F)c3)ccc2C)ncn1
inhibition [1]: 1.3% | inhibition [2]: -5.7% | inhibition [3]: 19% | inhibition [4]: 2.3%

CCN1CCN(Cc2ccc(NC(=O)c3ccc(C)c(Oc4ccnc5[nH]ccc45)c3)cc2C(F)(F)F)CC1
inhibition [5]: 11.6% | inhibition [6]: 14.4% | inhibition [7]: 74.5% | inhibition [8]: 44.3% | inhibition [9]: inactive | inhibition [10]: inactive

CCN1CCN(Cc2ccc(NC(=O)c3ccc(C)c(/C=C/c4cnc5[nH]ccc5c4OC)c3)cc2C(F)(F)F)CC1
inhibition [11]: -1.4% | inhibition [12]: 29.6% | inhibition [13]: 23% | percent of control [14]: 0.85%
